In patent publication US9458198B1, “Cyclic peptide-based NPR-B agonists” (priority 2009, dated 2016):
Where two headings read alike, the source gives them in different places. Where a SMILES comes first, the peptide text is derived from it. Bridges are numbered along the chain shown (N, C = ends). [ ]: non-standard residue; d: D form. The star is where a group is joined. Hexanoyl = CCCCCC(=O)*

Key:
[1] = test system: human colon adenocarcinoma cells; conditions: 1 mM, within 24 h; cited from earlier work
NPR-B = molecular target: T1, NPR-B (Homo sapiens, UniProt P20594); assay: NPR-B induced production of cyclic GMP in GTM-3 cells; assay type: cell-based
T1 construct: a functional assay using endogenously NPR-B expressing GTM-3 cells; endogenous in cells; host or cells: GTM-3 (transformed human trabecular meshwork cells)
T1 sequence (P20594 23-1047): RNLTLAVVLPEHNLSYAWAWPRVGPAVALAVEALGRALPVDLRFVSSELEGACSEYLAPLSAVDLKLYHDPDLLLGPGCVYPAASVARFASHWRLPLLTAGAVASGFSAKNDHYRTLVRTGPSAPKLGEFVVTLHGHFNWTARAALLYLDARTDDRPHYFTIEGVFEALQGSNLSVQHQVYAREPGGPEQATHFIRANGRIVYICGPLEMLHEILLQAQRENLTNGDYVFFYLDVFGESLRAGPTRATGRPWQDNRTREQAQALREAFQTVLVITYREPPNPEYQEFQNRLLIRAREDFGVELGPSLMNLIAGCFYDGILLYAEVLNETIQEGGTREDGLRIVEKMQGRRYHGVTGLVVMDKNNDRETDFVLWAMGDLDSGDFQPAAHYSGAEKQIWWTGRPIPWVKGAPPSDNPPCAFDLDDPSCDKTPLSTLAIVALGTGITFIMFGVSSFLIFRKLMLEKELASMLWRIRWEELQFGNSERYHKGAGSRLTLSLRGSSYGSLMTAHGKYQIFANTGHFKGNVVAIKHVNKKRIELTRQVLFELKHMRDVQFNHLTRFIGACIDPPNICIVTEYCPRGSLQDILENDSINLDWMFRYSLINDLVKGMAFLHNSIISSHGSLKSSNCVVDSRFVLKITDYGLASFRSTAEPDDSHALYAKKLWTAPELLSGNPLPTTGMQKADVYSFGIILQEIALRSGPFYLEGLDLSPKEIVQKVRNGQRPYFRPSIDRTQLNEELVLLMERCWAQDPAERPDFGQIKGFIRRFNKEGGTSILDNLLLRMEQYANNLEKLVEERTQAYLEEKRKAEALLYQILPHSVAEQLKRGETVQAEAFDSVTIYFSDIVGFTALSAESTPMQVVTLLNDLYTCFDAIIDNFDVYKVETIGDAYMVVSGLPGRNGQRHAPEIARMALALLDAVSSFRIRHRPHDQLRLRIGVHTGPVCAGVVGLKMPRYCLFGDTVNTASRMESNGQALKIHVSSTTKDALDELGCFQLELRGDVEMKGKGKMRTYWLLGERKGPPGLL
How it was run: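 GTM-3 cells with endogenous NPR-B were washed and preincubated 15 min at room temperature in medium with 1 mM IBMX. Compounds were tested at final 45 μM to 20 nM; dose-dependent cGMP production gave Emax and EC50.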

[2] = Activity (group): NPR-B activation, EC50 and Emax (CNP = 100%), GTM-3 cells, group needs both EC50 and Emax criteria, checked A then B then C
[3] = GTM-3 cells, group needs both EC50 and Emax criteria, checked A then B then C, read-out: Activity (group): NPR-B activation, EC50 and Emax (CNP = 100%)

Compound: CC[C@H](C)[C@@H]1NC(=O)[C@H](CCCNC(=N)N)NC(=O)[C@H](CC(=O)O)NC(=O)[C@H](CCSC)NC(=O)[C@H](CCCNC(=N)N)NC(=O)CNC(=O)CNC(=O)[C@H](Cc2ccccc2)NC(=O)[C@@H](NC(=O)[C@H](CO)NC(=O)[C@H](CO)NC(=O)[C@H](CCCNC(=N)N)NC(=O)[C@H](CCCNC(=N)N)NC(=O)[C@H](CC(C)C)NC(=O)[C@@H](N)CO)CSSC[C@@H](C(=O)N[C@@H](CC(N)=O)C(=O)N[C@@H](CO)C(=O)N[C@@H](Cc2ccccc2)C(=O)N[C@@H](CCCNC(=N)N)C(=O)N[C@@H](Cc2ccc(O)cc2)C(=O)O)NC(=O)CNC(=O)[C@H](CC(C)C)NC(=O)CNC(=O)[C@H](CO)NC(=O)[C@H](CCC(N)=O)NC(=O)[C@H](C)NC(=O)CNC1=O [ANP, atrial natriuretic peptide]
- decrease in cell number [1]: up to 97%

Compound: CCCCCC(=O)N[C@H]1CSSC[C@@H](C(N)=O)NC(=O)[C@H](CO)NC(=O)[C@H]([C@@H](C)CC)NC(=O)[C@H](CCCNC(=N)N)NC(=O)[C@H](CC(=O)O)NC(=O)[C@H]([C@@H](C)CC)NC(=O)[C@@H]2CCCN2C(=O)[C@H](CC(C)C)NC(=O)CNC(=O)[C@H](Cc2ccccc2)NC(=O)[C@H]2CCCN2C1=O [compound 89] (Hexanoyl-C[dP]FGLPIDRISC-NH2; disulfide 1-12)
- EC50 (NPR-B; [2]): < 1 µM

Compound: CCCCCC(=O)N[C@H]1CSSC[C@@H](C(N)=O)NC(=O)[C@H](CO)NC(=O)[C@H]([C@@H](C)CC)NC(=O)[C@H](CCCNC(=N)N)NC(=O)[C@H](CC(=O)O)NC(=O)[C@H](CC(C)C)NC(=O)[C@H](CCCCN)NC(=O)[C@H](CC(C)C)NC(=O)CNC(=O)[C@H](Cc2ccccc2)NC(=O)[C@H]2CCCN2C1=O [compound 90]
- EC50 (NPR-B; [3]): < 1 µM

Compound: CCCCCC(=O)N[C@H]1CSSC[C@@H](C(N)=O)NC(=O)[C@H](CO)NC(=O)[C@H]([C@@H](C)CC)NC(=O)[C@H](CCCNC(=N)N)NC(=O)[C@H](CC(=O)O)NC(=O)[C@H](CC(C)C)NC(=O)[C@@H]2CCCN2C(=O)[C@H](CC(C)C)NC(=O)CNC(=O)[C@H](Cc2ccccc2)NC(=O)[C@H]2CCCN2C1=O [compound 91] (Hexanoyl-C[dP]FGLPLDRISC-NH2; disulfide 1-12)
- EC50 (NPR-B; [2]): < 1 µM

Compound: CCCCCC(=O)N[C@H]1CSSC[C@@H](C(N)=O)NC(=O)[C@H](CO)NC(=O)[C@H]([C@@H](C)CC)NC(=O)[C@H](CCCNC(=N)N)NC(=O)[C@H](CC(=O)O)NC(=O)[C@H]([C@@H](C)CC)NC(=O)[C@H](CCCCN)NC(=O)[C@H](CC(C)C)NC(=O)CNC(=O)[C@H](Cc2ccccc2)NC(=O)[C@H]2CCCN2C1=O [compound 92] (Hexanoyl-C[dP]FGLKIDRISC-NH2; disulfide 1-12)
- EC50 (NPR-B; Activity (group): NPR-B activation, EC50 and Emax (CNP = 100%)): < 1 µM

Compound: CCCCCC(=O)N[C@H]1CSSC[C@@H](C(N)=O)NC(=O)[C@H](CO)NC(=O)[C@H]([C@@H](C)CC)NC(=O)[C@H](CCCNC(=N)N)NC(=O)[C@H](CC(=O)O)NC(=O)[C@H](CC(C)C)NC(=O)[C@@H]2CCCN2C(=O)[C@H](CC(C)C)NC(=O)CNC(=O)[C@H](Cc2ccccc2)NC(=O)[C@@H](C)NC1=O [compound 93]
- EC50 (NPR-B; [2]): < 1 µM

Compound: CCCCCC(=O)N[C@H]1CSSC[C@@H](C(N)=O)NC(=O)[C@H](CO)NC(=O)[C@H]([C@@H](C)CC)NC(=O)[C@H](CCCNC(=N)N)NC(=O)[C@H](CC(=O)O)NC(=O)[C@H](CC(C)C)NC(=O)[C@H](CCCCN)NC(=O)[C@H]([C@@H](C)O)NC(=O)CNC(=O)[C@H](Cc2ccccc2)NC(=O)[C@@H](C)NC1=O [compound 100] (Hexanoyl-C[dA]FGTKLDRISC-NH2; disulfide 1-12)
- EC50 (NPR-B; [3]): < 5 µM

Compound: CCCCCC(=O)N[C@H]1CSSC[C@@H](C(N)=O)NC(=O)[C@H](CO)NC(=O)[C@H]([C@@H](C)CC)NC(=O)[C@H](CCCNC(=N)N)NC(=O)[C@H](CC(=O)O)NC(=O)[C@H](CC(C)C)NC(=O)[C@H](CCCCN)NC(=O)[C@H](C)NC(=O)CNC(=O)[C@H](Cc2ccccc2)NC(=O)[C@@H](C)NC1=O [compound 101] (Hexanoyl-C[dA]FGAKLDRISC-NH2; disulfide 1-12)
- EC50 (NPR-B; [3]): < 5 µM

Compound: CCCCCC(=O)N[C@H]1CSSC[C@@H](C(N)=O)NC(=O)[C@H](CO)NC(=O)[C@H]([C@@H](C)CC)NC(=O)[C@H](CCCNC(=N)N)NC(=O)[C@H](CC(=O)O)NC(=O)[C@H](CC(C)C)NC(=O)[C@H](CCCCN)NC(=O)CNC(=O)CNC(=O)[C@H](Cc2ccccc2)NC(=O)[C@@H](C)NC1=O [compound 102] (Hexanoyl-C[dA]FGGKLDRISC-NH2; disulfide 1-12)
- EC50 (NPR-B; [3]): < 5 µM

Compound: CCCCCC(=O)N[C@H]1CSSC[C@@H](C(N)=O)NC(=O)[C@H](CO)NC(=O)[C@H]([C@@H](C)CC)NC(=O)[C@H](CCCNC(=N)N)NC(=O)[C@H](CC(=O)O)NC(=O)[C@H](CC(C)C)NC(=O)[C@H](CCCCN)NC(=O)[C@H](CC(C)C)NC(=O)CNC(=O)[C@H](Cc2cccc(C(F)(F)F)c2)NC(=O)[C@@H](C)NC1=O [compound 105]
- EC50 (NPR-B; [3]): < 15 µM

Compound: CCCCCC(=O)N[C@H]1CSSC[C@@H](C(N)=O)NC(=O)[C@H](CO)NC(=O)[C@H]([C@@H](C)CC)NC(=O)[C@H](Cc2ccc(C(=N)N)cc2)NC(=O)[C@H](CC(=O)O)NC(=O)[C@H](CC(C)C)NC(=O)[C@H](CCCCN)NC(=O)[C@H](CC(C)C)NC(=O)CNC(=O)[C@H](Cc2ccccc2)NC(=O)[C@@H](C)NC1=O [compound 112]
- EC50 (NPR-B; [3]): < 15 µM

Compound: CCCCCC(=O)N[C@H]1CSSC[C@@H](C(N)=O)NC(=O)[C@H](CO)NC(=O)[C@H]([C@@H](C)CC)NC(=O)[C@H](CCNC(=N)N)NC(=O)[C@H](CC(=O)O)NC(=O)[C@H](CC(C)C)NC(=O)[C@H](CCCCN)NC(=O)[C@H](CC(C)C)NC(=O)CNC(=O)[C@H](Cc2ccccc2)NC(=O)[C@@H](C)NC1=O [compound 114]
- EC50 (NPR-B; [3]): < 15 µM

Compound: CCCCCC(=O)N[C@H]1CSSC[C@@H](C(N)=O)NC(=O)[C@H](CO)NC(=O)C2(CCOCC2)NC(=O)[C@H](CCCNC(=N)N)NC(=O)[C@H](CC(=O)O)NC(=O)[C@H](CC(C)C)NC(=O)[C@H](CCCCN)NC(=O)[C@H](CC(C)C)NC(=O)CNC(=O)[C@H](Cc2ccccc2)NC(=O)[C@@H](C)NC1=O [compound 116]
- EC50 (NPR-B; [3]): < 15 µM

Compound: CCCCCC(=O)N[C@H]1CSSC[C@@H](C(N)=O)NC(=O)[C@H](CO)NC(=O)C2(CCSCC2)NC(=O)[C@H](CCCNC(=N)N)NC(=O)[C@H](CC(=O)O)NC(=O)[C@H](CC(C)C)NC(=O)[C@H](CCCCN)NC(=O)[C@H](CC(C)C)NC(=O)CNC(=O)[C@H](Cc2ccccc2)NC(=O)[C@@H](C)NC1=O [compound 117]
- EC50 (NPR-B; [3]): < 15 µM

Compound: CC[C@H](C)[C@@H]1NC(=O)[C@H](CCCNC(=N)N)NC(=O)[C@H](CC(=O)O)NC(=O)[C@H](CCSC)NC(=O)[C@H](CCCNC(=N)N)NC(=O)CNC(=O)CNC(=O)[C@H](Cc2ccccc2)NC(=O)[C@H](Cc2c[nH]cn2)NC(=O)[C@@H](NC(=O)[C@@H](N)CCSC)CSSC[C@@H](C(=O)N[C@@H](Cc2ccc(O)cc2)C(=O)N[C@@H](CCCNC(=N)N)C(N)=O)NC(=O)[C@H](CO)NC1=O [mini-ANP, reference compound] (H-MCHFGGRMDRISCYR-NH2; disulfide 2-13)
- Emax (NPR-B; GTM3, GTM-3 cells, FIG. 2, CNP = 100%, read-out: Emax (maximum activation) relative to CNP): 0%
- EC50 (NPR-B; GTM-3 cells, FIG. 2, highest concentration 45 μM, read-out: EC50, cyclic GMP production): > 45 µM
